Laboratory results: patent US9249125B2, “Pyrazole derivatives as p38 MAP inhibitors” (RESPIVERT LIMITED, priority 2012, dated 2016)

Assays:
[1] = tested on: Poly I:C-induced ICAM-1 expression in BEAS2B cells; assay: Poly I:C-induced ICAM-1 expression in BEAS2B cells; type: cell-based; conditions: Homo sapiens, BEAS-2B, read-out: Poly IC induced ICAM1 in BEAS2B IC50
How it was run: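 Cell-based ELISA read at 450 nm minus 655 nm, divided by crystal violet OD595 to normalize for cell number, gave ICAM-1 levels. Readout was taken 18 hr after poly I:C (1 μg/mL, Oligofectamine) transfection of human bronchial BEAS2B cells pretreated 2 hr with test compound.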

[2] = tested on: LPS-induced IL-8 release in d-U937 cells; assay: LPS-induced IL-8 release in d-U937 cells; type: cell-based; conditions: Homo sapiens, dU937, read-out: LPS Induced Release of Cytokine in d-937 Cells IL-8 IC50
How it was run: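 Sandwich ELISA of culture supernatant gives TNFα and IL-8 levels after a 4 hr challenge with LPS (0.1 μg/mL, E. coli O111:B4). Before stimulation, macrophage-like U937 cells, obtained by 48–72 hr in PMA at 100 ng/mL, sit with compound for 2 hr. Relative EC50 is derived from concentration-response data.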

Syk = Syk (Homo sapiens (Human), UniProt P43405); assay: Syk enzyme inhibition (FRET, Z-LYTE); type: biochemical
How it was run: (§1)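 Z-LYTE FRET kinase assay: enzyme (3000 or 2000 ng/mL stock, respectively) preincubated 2 h at RT with compound (4–0.004 μg/mL stocks), then FRET peptide plus ATP (800 μM stock for c-Src, 60 μM for Syk) added for 1 h. Protease development 1 h; phosphorylation from coumarin/fluorescein emission ratio.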

p38 MAPKα = p38 MAPKα (Homo sapiens (Human), UniProt Q16539); assay: p38 MAPKα enzyme inhibition (FRET, Z-LYTE); type: biochemical
GSK3α = GSK3α (Homo sapiens (Human), UniProt P49840); assay: GSK 3α enzyme inhibition (FRET, Z-LYTE); type: biochemical
How it was run: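 Phosphorylation was read as the donor (coumarin) to acceptor (fluorescein) ratio after a 1 hr protease step destroying non-phosphorylated peptide. Before this, compound (4–0.004 μg/mL stocks) sat 2 hr at RT with GSK3α (500 ng/mL stock), followed by 1 hr kinase reaction with 8 μM peptide and 40 μM ATP stocks.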

cSrc = cSrc (Homo sapiens (Human), UniProt P12931); assay: c-Src enzyme inhibition (FRET, Z-LYTE); type: biochemical
How it was run: as §1

[3] = tested on: LPS-induced TNFα release in d-U937 cells; assay: LPS-induced TNFα release in d-U937 cells; type: cell-based; conditions: Homo sapiens, dU937, relative to 10 μg/mL BIRB796, read-out: LPS Induced Release of Cytokine in d-937 Cells TNFα REC50
How it was run: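 Human monocytic U937 cells were differentiated to macrophage-type cells with PMA (100 ng/mL) for 48 to 72 hr, pre-treated with test compound for 2 hr, then stimulated 4 hr with E. coli O111:B4 LPS (0.1 μg/mL). Supernatant TNFα and IL-8 were measured by sandwich ELISA; REC50 came from concentration-response curves.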

[4] = tested on: LPS-induced airways neutrophilia in mice; assay: LPS-induced neutrophil accumulation in mice; type: in vivo; conditions: Test Substance at 0.2 mg/mL, intra tracheal, dosed 8 hr pre-LPS challenge
Method: Non-fasted Balb/c mice are dosed by the intra tracheal route with either vehicle, or the test substance at the indicated times (within the range 2-8 hr) before stimulation of the inflammatory response by application of an LPS challenge. At T=0, mice are placed into an exposure chamber and exposed to LPS (7.0 mL, 0.5 mg/mL solution in PBS) for 30 min). After a further 8 hr the animals are anesthetized, their tracheas cannulated and BALF extracted by infusing and then withdrawing from their lungs 1.0 mL of PBS via the tracheal catheter. Total and differential white cell counts in the BALF samples are measured using a Neubaur haemocytometer. Cytospin smears of the BALF samples are prepared by centrifugation at 200 rpm for 5 min at RT and stained using a DiffQuik stain system (Dade Behring). Cells are counted using oil immersion microscopy. Data for neutrophil numbers in BAL are shown as mean±S.E.M. (standard error of the mean). The percentage inhibition of neutrophil accumulation is calculated for each treatment relative to vehicle treatment.

d-U937 cells = assay: Cell viability: MTT assay; type: cell-based, human; conditions: 1 μg/mL
How it was run: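 MTT read-out (1 h, absorbance 550 nm) on d-U937 cells after pre-incubation with 1 or 10 μg/mL compound under two regimes: 4 h, 5% FCS, or 24 h, 10% FCS RPMI1640. Values are percent loss of viability relative to vehicle (0.5% DMSO), so increases are reported as negative.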

Chain of GSK3α (P49840 whole entry): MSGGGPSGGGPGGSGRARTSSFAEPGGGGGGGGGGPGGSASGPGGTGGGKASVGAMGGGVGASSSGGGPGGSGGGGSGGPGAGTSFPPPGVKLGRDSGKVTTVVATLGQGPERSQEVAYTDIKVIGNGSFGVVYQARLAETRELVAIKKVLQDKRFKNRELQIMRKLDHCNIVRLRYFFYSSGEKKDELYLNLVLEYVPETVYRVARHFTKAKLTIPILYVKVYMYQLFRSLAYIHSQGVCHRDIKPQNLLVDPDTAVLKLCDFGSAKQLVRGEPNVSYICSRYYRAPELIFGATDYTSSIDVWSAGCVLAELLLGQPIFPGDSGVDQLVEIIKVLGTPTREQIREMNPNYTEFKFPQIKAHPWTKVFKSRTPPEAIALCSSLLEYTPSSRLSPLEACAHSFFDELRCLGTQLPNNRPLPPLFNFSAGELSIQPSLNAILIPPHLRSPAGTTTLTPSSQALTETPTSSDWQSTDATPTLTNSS
Chain of cSrc (P12931 whole entry, looked up): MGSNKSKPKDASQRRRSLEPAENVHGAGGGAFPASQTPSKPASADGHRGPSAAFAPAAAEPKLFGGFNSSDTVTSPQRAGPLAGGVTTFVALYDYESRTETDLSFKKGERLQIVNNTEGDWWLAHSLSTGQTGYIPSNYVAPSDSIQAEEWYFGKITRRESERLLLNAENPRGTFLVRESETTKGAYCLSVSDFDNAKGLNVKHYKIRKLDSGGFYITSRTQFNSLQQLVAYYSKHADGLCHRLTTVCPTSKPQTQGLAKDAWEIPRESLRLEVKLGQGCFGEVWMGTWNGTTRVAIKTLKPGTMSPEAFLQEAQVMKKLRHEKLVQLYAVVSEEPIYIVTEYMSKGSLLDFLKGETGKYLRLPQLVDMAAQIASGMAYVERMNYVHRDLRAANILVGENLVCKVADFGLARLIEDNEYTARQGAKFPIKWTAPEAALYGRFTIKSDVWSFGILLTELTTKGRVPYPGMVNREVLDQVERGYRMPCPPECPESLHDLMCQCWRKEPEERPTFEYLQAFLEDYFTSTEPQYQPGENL
Chain of p38 MAPKα (Q16539 whole entry): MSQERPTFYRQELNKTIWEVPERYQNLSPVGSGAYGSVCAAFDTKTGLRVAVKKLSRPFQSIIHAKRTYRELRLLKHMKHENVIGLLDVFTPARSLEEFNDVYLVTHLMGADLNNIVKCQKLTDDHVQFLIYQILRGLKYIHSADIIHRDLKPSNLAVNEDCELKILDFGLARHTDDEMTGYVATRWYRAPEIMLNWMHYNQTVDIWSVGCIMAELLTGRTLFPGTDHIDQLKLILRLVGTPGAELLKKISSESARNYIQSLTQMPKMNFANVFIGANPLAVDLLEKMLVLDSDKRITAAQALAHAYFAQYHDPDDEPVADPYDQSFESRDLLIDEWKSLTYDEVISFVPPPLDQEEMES

Row | IC50 [2] [nM] | IC50 (Syk) [nM] | IC50 (p38 MAPKα) [nM] | IC50 (GSK3α) [nM] | IC50 (cSrc) [nM] | EC50 [3] [nM] | Compound | IC50 [1] [nM] | % Inhibition of neutrophil accumulation in BAL [4] [%] | Neutrophil numbers in BAL (+/−SEM) [4] | MTT Assay Cell viability at time point in d-U937 cells 4 h (d-U937 cells) | MTT Assay Cell viability at time point in d-U937 cells 24 h (d-U937 cells)
1 | 0.5 | 8 | 30 | > 1560 | 3 | 1.6 | COc1ccc(-n2nc(C(C)(C)C)cc2NC(=O)Nc2ccc(Oc3ccnc(Nc4ccc5[nH]ncc5c4)n3)c3ccccc23)cn1 [Example 13, 1-(4-((2-((1H-Indazol-5-yl)amino)pyrimidin-4-yl)oxy)naphthalen-1-yl)-3-(3-(tert-butyl)-1-(6-methoxypyridin-3-yl)-1H-pyrazol-5-yl)urea] | 2.4 | 50 | 8.5 ± 1.4 ×10^5/mL | −ve (−ve and +ve indicate that the value is below and above respectively, the no significant effect threshold, defined as 30% inhibition at 1 μg/mL at the time point indicated.) | −ve (−ve and +ve indicate that the value is below and above respectively, the no significant effect threshold, defined as 30% inhibition at 1 μg/mL at the time point indicated.)
2 | 21.1 | 2 | 12 | 908 | < 1 | 1.8 | COc1ccc(-n2nc(C(C)C)cc2NC(=O)Nc2ccc(Oc3ccnc(Nc4ccc5[nH]nc(C(=O)N(C)C)c5c4)n3)c3ccccc23)cc1 [Example 46, 5-((4-((4-(3-(3-isopropyl-1-(4-methoxyphenyl)-1H-pyrazol-5-yl)ureido)naphthalen-1-yl)oxy)pyrimidin-2-yl)amino)-N,N-dimethyl-1H-indazole-3-carboxamide] | 2.3 | – | – | −ve (−ve and +ve indicate that the value is below and above respectively, the no significant effect threshold, defined as 30% inhibition at 1 μg/mL at the time point indicated.) | −ve (−ve and +ve indicate that the value is below and above respectively, the no significant effect threshold, defined as 30% inhibition at 1 μg/mL at the time point indicated.)
3 | 173 | 3 | 8 | 11300 | 4 | 49.1 | CC(C)c1cc(NC(=O)Nc2ccc(Oc3ccnc(Nc4ccc5[nH]ncc5c4)n3)c3ccccc23)n(-c2cccc(OCCN3CCOCC3)c2)n1 [Example 53, 1-(4-((2-((1H-indazol-5-yl)amino)pyrimidin-4-yl)oxy)naphthalen-1-yl)-3-(3-isopropyl-1-(3-(2-morpholinoethoxy)phenyl)-1H-pyrazol-5-yl)urea] | 38.5 | – | – | −ve (−ve and +ve indicate that the value is below and above respectively, the no significant effect threshold, defined as 30% inhibition at 1 μg/mL at the time point indicated.) | −ve (−ve and +ve indicate that the value is below and above respectively, the no significant effect threshold, defined as 30% inhibition at 1 μg/mL at the time point indicated.)
4 | 5.9 | 142 | 332 | > 1600 | 16 | 2.5 | CC(C)(C)c1cc(NC(=O)Nc2ccc(Oc3ccnc(Nc4ccc5[nH]ccc5c4)n3)c3ccccc23)n(-c2ccc(O)cc2)n1 [Example 37, 1-(4-((2-((1H-indol-5-yl)amino)pyrimidin-4-yl)oxy)naphthalen-1-yl)-3-(3-(tert-butyl)-1-(4-hydroxyphenyl)-1H-pyrazol-5-yl)urea] | 3.7 | – | – | −ve (−ve and +ve indicate that the value is below and above respectively, the no significant effect threshold, defined as 30% inhibition at 1 μg/mL at the time point indicated.) | −ve (−ve and +ve indicate that the value is below and above respectively, the no significant effect threshold, defined as 30% inhibition at 1 μg/mL at the time point indicated.)
5 | 0.3 | 34 | 48 | 777 | 15 | 12.5 | CC(C)(C)c1cc(NC(=O)Nc2ccc(Oc3ccnc(Nc4ccc5oc(=O)[nH]c5c4)n3)c3ccccc23)n(-c2ccc(OCCN3CCOCC3)cc2)n1 [Example 76, 1-(3-(tert-butyl)-1-(4-(2-morpholinoethoxy)phenyl)-1H-pyrazol-5-yl)-3-(4-((2-((2-oxo-2,3-dihydrobenzo[d]oxazol-5-yl)amino)pyrimidin-4-yl)oxy)naphthalen-1-yl)urea] | 2.2 | – | – | −ve (−ve and +ve indicate that the value is below and above respectively, the no significant effect threshold, defined as 30% inhibition at 1 μg/mL at the time point indicated.) | −ve (−ve and +ve indicate that the value is below and above respectively, the no significant effect threshold, defined as 30% inhibition at 1 μg/mL at the time point indicated.)
6 | 21.1 | 29 | 57 | 582 | 12 | 9.9 | Cc1ccc(-n2nc(C(C)(C)C)cc2NC(=O)Nc2ccc(Oc3ccnc(Nc4ccc5c(cnn5CCN5CCOCC5)c4)n3)c3ccccc23)cc1 [Example 29, 1-(3-(tert-butyl)-1-(p-tolyl)-1H-pyrazol-5-yl)-3-(4-((2-((1-(2-morpholinoethyl)-1H-indazol-5-yl)amino)pyrimidin-4-yl)oxy)naphthalen-1-yl)urea] | 0.9 | – | – | −ve (−ve and +ve indicate that the value is below and above respectively, the no significant effect threshold, defined as 30% inhibition at 1 μg/mL at the time point indicated.) | −ve (−ve and +ve indicate that the value is below and above respectively, the no significant effect threshold, defined as 30% inhibition at 1 μg/mL at the time point indicated.)

Row | Compound | IC50 [2] [nM] | IC50 (Syk) [nM] | IC50 (p38 MAPKα) [nM] | IC50 (GSK3α) [nM] | IC50 (cSrc) [nM] | EC50 [3] [nM] | IC50 [1] [nM] | % Inhibition of neutrophil accumulation in BAL [4] [%] | Neutrophil numbers in BAL (+/−SEM) [4] | MTT Assay Cell viability at time point in d-U937 cells 4 h (d-U937 cells) | MTT Assay Cell viability at time point in d-U937 cells 24 h (d-U937 cells)
7 | Cc1ccc(-n2nc(C(C)(C)C)cc2NC(=O)Nc2ccc(Oc3ccnc(Nc4ccc5[nH]nc(C(=O)NCCN6CCOCC6)c5c4)n3)c3ccccc23)cc1 [Example 3, 5-((4-((4-(3-(3-(tert-Butyl)-1-(p-tolyl)-1H-pyrazol-5-yl)ureido)naphthalen-1-yl)oxy)pyrimidin-2-yl)amino)-N-(2-morpholinoethyl)-1H-indazole-3-carboxamide] | 34.8 | 95 | 19 | 2330 | 6 | 5.2 | 6.8 | – | – | −ve (−ve and +ve indicate that the value is below and above respectively, the no significant effect threshold, defined as 30% inhibition at 1 μg/mL at the time point indicated.) | −ve (−ve and +ve indicate that the value is below and above respectively, the no significant effect threshold, defined as 30% inhibition at 1 μg/mL at the time point indicated.)
